Experiments:
antigen = test: Testing of binding reactivity of antibody after conjugation with molecular reporter on 96-well plates (HRP-labeled anti-mouse antibody, signal at 450 nm); conditions: 2 μg/mL conjugated antibody, antigen-coated 96-well plate
Method: The binding reactivity of antibody conjugating molecular reporter (compound 6, compound 8, and compound 14) to antigen could be tested with an immobilization of antigen on wells of 96-well plates. The molecular reporter conjugated antibody was added into the wells. The antibody would bind to the antigen coating wells. Horseradish peroxidase labeled antibody specific to mouse antibody was used as a reporter molecule for reporting binding reactivity. The results of molecular reporter conjugated antibody were compared with results of antibody without molecular reporter conjugation.
The method for testing binding reactivity of molecular reporter conjugated antibody and antigen in 96-well plate consists of the following steps. • a) Prepare 2 μg/mL of antigen in carbonate buffer containing 50 mM carbonate, pH 9.6, and immobilize antigen (100 μL/well) in 96-well plate. • b) Incubate 96-well plate in step 1 at 4° C. for 12-16 hours. • c) Block non-specific binding with 300 μL/well of 2% bovine serum albumin in phosphate-buffered saline containing 0.05% Tween (PBST), and incubate at room temperature for 1 hour. • d) Wash 96-well plates in step 3 with 300 μL/well of PBST for 3 times. • e) Add 100 μL/ well of 2 μg/mL of antibody conjugating molecular reporter (compound 6, compound 8, and compound 14), and incubate at room temperature for 1 hour. • f) Wash 96-well plates in step 5 with 300 μL/well of PBST for 3 times. • g) Add 100 μL/well of horseradish peroxidase labeled antibody specific to mouse antibody (dilution at 1:10,000), and incubate at room temperature for 1 hour. • h) Wash 96-well plates in step 7 with 300 μL/well of PBST for 3 times. • i) Add 100 μL/well of substrate solution for horseradish peroxidase which is 3,3′,5,5′-Tetramethylbenzidine, and incubate at room temperature for 30 minutes. • j) Add 50 μL/well of sulfuric acid (H2SO4) for stop reaction. • k) Measure signals at 450 nm.

In the case of `N#Cc1c(C#N)c2ccc3cc(OCCCCCC(=O)O)ccc3c2c2c1ccc1cc(OCCCCCC(=O)O)ccc12` [compound 6, 6,6′-((3,4-dicyanodibenzo[c,g]phenanthrene-8,13-diyl)bis(oxy))dihexanoic acid], the “binding of antibody conjugating molecular reporter to antigen (FIG. 5)” value (antigen) is reported as “antibody could bind to antigen” and the “effect of molecular reporter on binding reactivity of antibody compared with antibody without any conjugation (FIG. 5)” value (antigen) is reported as “did not affect the binding reactivity of antibody”.
With `N#Cc1c(C#N)c2c(c3c1CCc1cc(OCCCCCC=O)ccc1-3)-c1ccc(OCCCCCC=O)cc1CC2` [compound 8, 8,13-bis((6-oxohexyl)oxy)-1,2,5,6-tetrahydrodibenzo[c,g]phenanthrene-3,4-dicarbonitrile] the “binding of antibody conjugating molecular reporter to antigen (FIG. 5)” value (antigen) was “antibody could bind to antigen”, the “effect of molecular reporter on binding reactivity of antibody compared with antibody without any conjugation (FIG. 5)” value (antigen) was “did not affect the binding reactivity of antibody” and the melting point was 135 to 139 °C.

Reference: patent publication US11578040B2, “[5]Helicene derivatives as molecular reporters for diagnostic applications and methods of synthesis therefor” (NATIONAL SCIENCE AND TECHNOLOGY DEVELOPMENT AGENCY, priority 2016, dated 2023)
